Results published in patent US11209437B2, “Fluorescent probe and preparation method and use thereof” (Fluorescence Diagnosis (shanghai) Biotech Company Ltd., priority 2016, dated 2021).

Experiments:
[1] = Fluorescence of free probe prior to binding to a protein tag; type: physicochemical
Method: (§1) Probes were mixed with corresponding protein tags to obtain mixed samples, in which the final probe concentration was 5 μM, and the final protein tag concentration was 10 μM. The mixed samples were incubated 37° C. for 1 hr, fluorescence spectrophotometer was used to detect the change in fluorescence intensity, and the results are shown in Table 1.
(§2) From the quantum yield of probe bound to protein tag, after reacting with the protein tags, the probes of the Examples could be detected to have significant signal enhancement in corresponding excitation transmission channels, the fluorescence activation multiple reached several hundreds to a thousand or more, and the brightness was high, which illustrates that after the probes of the Examples are bound to the protein tags, fluorescence of the probes can be activated, and the probes have good fluorescent molecular switching properties. In contrast, though the fluorescence of the reference probes could also be activated, the quantum yield of activated fluorescence was very low, and the brightness was very poor. In particular, in view of comparison results between probe 98 and reference probe 99, probe 101 and reference probe 102, probe 103 and reference probe 104, probe 105 and reference probe 106, probe 107 and reference probe 108, probe 109 and reference probe 110, probe 111 and reference probe 112, probe 114 and reference probe 115, probe 117 and reference probe 118, probe 120 and reference probe 121 in Table 1, for the same fluorescent dye, when the ligand is connected to the electron donor part of the fluorescent dye, the fluorescence activation brightness of the probe is much higher than the reference probe in which ligand is connected to the electron acceptor part of the fluorescent dye.

SNAP protein tags = target: T1, SNAP protein tags (Homo sapiens, UniProt P16455, A127T/A154D/C150Q/C62A/E30R/G131K/G132T/G153L/K125A/K32I/L33F/M134L/N157G/Q115S/Q116H/R128A/R135S/S151G/S152D/S159E); assay: Fluorescence activation of probe after incubation with corresponding protein tag (SNAP); type: biochemical; settings: probe 5 μM, protein tag 10 μM, 37° C., 1 hr
T1 sequence (P16455 1-182 E30R/K32I/L33F/C62A/Q115S/Q116H/K125A/A127T/R128A/G131K/G132T/M134L/R135S/C150Q/S151G/S152D/G153L/A154D/N157G/S159E): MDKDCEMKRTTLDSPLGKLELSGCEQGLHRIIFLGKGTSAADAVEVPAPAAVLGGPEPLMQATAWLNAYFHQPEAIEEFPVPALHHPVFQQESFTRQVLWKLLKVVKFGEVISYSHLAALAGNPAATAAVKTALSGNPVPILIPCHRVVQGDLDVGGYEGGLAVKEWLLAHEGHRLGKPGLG
Method: as §1, §2

[2] = Viscosity responsiveness: fluorescence emission spectra of probes in glycerol and methanol; type: physicochemical; settings: for Emission wavelength: excited at maximum excitation wavelength of each probe; for Fluorescence ratio in glycerol to methanol: probe 1×10^−5 M
Method: Probes 1 to 98, 101, 103, 105, 107, 109, 111, 114, 117, and 120, and the reference probes 99, 100, 102, 104, 106, 108, 110, 112, 113, 115, 116, 118, 119, 121, BG-CCVJ and BG-Gly-CCVJ were dissolved in dimethyl sulfoxide, respectively, to prepare mother liquors having a concentration of 1×10^−2 M, to each of which glycerol and methanol were added and uniformly mixed, to prepare solutions finally having a concentration of 1×10^−5 M. Depending on the probes, fluorescence emission spectra of the probes were detected successively with the maximum excitation wavelength of each probe under the same conditions, and the results were shown in Table 1.
That is, these probes are sensitive to viscosity changes and have viscosity responsiveness.

Row | SMILES | Quantum yield of free probe [1] | Fluorescence activation multiple (SNAP protein tags) | Quantum yield of probe bound to protein tag (SNAP protein tags) | Emission wavelength [2] [nm] | Fluorescence ratio in glycerol to methanol [2]
1 | CN(CCOC(=O)NCc1ccc(COc2cc(Cl)nc(N)n2)cc1)c1ccc(/C=C(\C#N)c2nc3ccccc3s2)cc1 [probe 6] | <0.001 | 989 | 0.37 | 610 | 1183
2 | CC(C)(C)OC(=O)/C(C#N)=C/c1ccc(N(CCO)CCOC(=O)NCc2ccc(COc3nc(N)nc4[nH]cnc34)cc2)cc1 [probe 10] | <0.001 | 431 | 0.39 | 482 | 655
3 | CC(C)(C)OC(=O)/C(C#N)=C/c1ccc(N(CCOC(=O)NCCCS(=O)(=O)O)CCOC(=O)NCc2ccc(COc3nc(N)nc4[nH]cnc34)cc2)cc1 [probe 11] | 0.0013 | 270 | 0.36 | 481 | 422
4 | COCCOCCOCCOCCOCCN(CCOC(=O)NCc1ccc(COc2nc(N)nc3[nH]cnc23)cc1)c1ccc(/C=C(\C#N)C(=O)OC(C)(C)C)cc1 [probe 12] | 0.0012 | 351 | 0.41 | 482 | 405
5 | CN(CCC(=O)NCc1ccc(COc2nc(N)nc3[nH]cnc23)cc1)c1ccc(/C=C(\C#N)C(=O)OC(C)(C)C)cc1 [probe 13] | <0.001 | 315 | 0.29 | 483 | 391
6 | CN1C(=O)/C(=C/c2ccc(N(C)CCOC(=O)NCc3ccc(COc4nc(N)nc5[nH]cnc45)cc3)cc2)N=C1c1ccccc1 [probe 14] | <0.001 | 771 | 0.18 | 531 | 560
7 | CN1C(=O)/C(=C/c2ccc(N(C)CCOC(=O)NCc3ccc(COc4cc(Cl)nc(N)n4)cc3)cc2)N=C1/C=C/c1ccccc1 [probe 16] | <0.001 | 359 | 0.21 | 580 | 311
8 | CN(CCOC(=O)NCc1ccc(COc2nc(N)nc3[nH]cnc23)cc1)c1ccc(C2=C(C#N)C(=C(C#N)C#N)OC2(C)C)cc1 [probe 18] | 0.0017 | 265 | 0.45 | 535 | 301
9 | CN(CCOC(=O)NCc1ccc(COc2cc(Cl)nc(N)n2)cc1)c1ccc(C2=C(C#N)C(=C(C#N)C#N)OC2(C)C)cc1 [probe 19] | 0.0012 | 361 | 0.45 | 535 | 299
10 | CN(CCOC(=O)NCc1ccc(COc2nc(N)nc3[nH]cnc23)cc1)c1cc2sc(/C=C(\C#N)c3nc4ccccc4o3)cc2s1 [probe 22] | <0.001 | 610 | 0.36 | 590 | 1821
11 | CN(CCOC(=O)NCc1ccc(COc2nc(N)nc3[nH]cnc23)cc1)c1cc2sc(/C=C(\C#N)c3nc4ccccc4s3)cc2s1 [probe 23] | <0.001 | 712 | 0.42 | 610 | 1235
12 | CN(CCOC(=O)NCc1ccc(COc2cc(Cl)nc(N)n2)cc1)c1cc2sc(/C=C(\C#N)C(=O)OC(C)(C)C)cc2s1 [probe 24] | <0.001 | 590 | 0.48 | 555 | 1681
13 | CN(CCOC(=O)NCc1ccc(COc2cc(Cl)nc(N)n2)cc1)c1cc2sc(/C=C(\C#N)c3nc4ccccc4o3)cc2s1 [probe 25] | <0.001 | 670 | 0.36 | 590 | 1621
14 | CN(CCOC(=O)NCc1ccc(COc2cc(Cl)nc(N)n2)cc1)c1cc2sc(/C=C(\C#N)c3nc4ccccc4s3)cc2s1 [probe 26] | <0.001 | 910 | 0.42 | 610 | 1123
15 | CN(CCOC(=O)NCc1ccc(COc2nc(N)nc3[nH]cnc23)cc1)c1ccc2cc(/C=C(\C#N)c3nc4ccccc4o3)sc2c1 [probe 31] | <0.001 | 421 | 0.41 | 607 | 1135
16 | CN(CCOC(=O)NCc1ccc(COc2nc(N)nc3[nH]cnc23)cc1)c1ccc2cc(/C=C(\C#N)c3nc4ccccc4s3)sc2c1 [probe 32] | <0.001 | 638 | 0.46 | 609 | 997
17 | CN(CCOC(=O)NCc1ccc(COc2cc(Cl)nc(N)n2)cc1)c1ccc2cc(/C=C(\C#N)C(=O)OC(C)(C)C)sc2c1 [probe 33] | <0.001 | 957 | 0.55 | 570 | 1781
18 | CC(C)(C)OC(=O)/C(C#N)=C/c1cc2ccc(N(CCC#N)CCOC(=O)NCc3ccc(COc4nc(N)nc5[nH]cnc45)cc3)cc2s1 [probe 36] | 0.001 | 488 | 0.50 | 570 | 1258
19 | CC(C)(C)OC(=O)/C(C#N)=C/c1cc2ccc(N(CCO)CCOC(=O)NCc3ccc(COc4nc(N)nc5[nH]cnc45)cc3)cc2s1 [probe 37] | 0.0012 | 469 | 0.56 | 570 | 1135
20 | CC(C)(C)OC(=O)/C(C#N)=C/c1cc2ccc(N(CCOC(=O)NCCCS(=O)(=O)O)CCOC(=O)NCc3ccc(COc4nc(N)nc5[nH]cnc45)cc3)cc2s1 [probe 39] | 0.0016 | 335 | 0.55 | 570 | 892
21 | CN(CCOC(=O)NCc1ccc(COc2nc(N)nc3[nH]cnc23)cc1)c1ccc2cc(/C=C(\C#N)C(=O)OC(C)(C)C)sc2c1 [probe 40] | 0.001 | 421 | 0.41 | 570 | 759
